Experimental data from patent US20190092789A1, “HETEROBICYCLIC PYRIMIDINONE COMPOUNDS AND THEIR USE IN THE TREATMENT OF MEDICAL DISORDERS” (priority 2015, published 2019).
≈ marks a conversion by molar mass, not a printed value.

Columns and labels:
[1] = target: T1, glucocerebrosidase (Gcase) (Homo sapiens, UniProt P04062); assay: Glucocerebrosidase (Gcase) activation assay, 4-methylumbelliferyl-beta-D-glucopyranoside substrate, with saposin C; assay type: biochemical; details: 10 nM GCase, 100 nM saposin C, pH 4.7; for activation at 0.1 µM: read-out: Percent Gcase Activation, 0.1 μM Test Compound; for activation at 1 µM: 0.25 h, read-out: Percent Gcase Activation, 1 μM Test Compound
T1 construct: 100 μL of micellar solution containing 10 nM GCase and 100 nM saposin C (Enzo ALX-201-262-C050)
T1 sequence (P04062 40-536): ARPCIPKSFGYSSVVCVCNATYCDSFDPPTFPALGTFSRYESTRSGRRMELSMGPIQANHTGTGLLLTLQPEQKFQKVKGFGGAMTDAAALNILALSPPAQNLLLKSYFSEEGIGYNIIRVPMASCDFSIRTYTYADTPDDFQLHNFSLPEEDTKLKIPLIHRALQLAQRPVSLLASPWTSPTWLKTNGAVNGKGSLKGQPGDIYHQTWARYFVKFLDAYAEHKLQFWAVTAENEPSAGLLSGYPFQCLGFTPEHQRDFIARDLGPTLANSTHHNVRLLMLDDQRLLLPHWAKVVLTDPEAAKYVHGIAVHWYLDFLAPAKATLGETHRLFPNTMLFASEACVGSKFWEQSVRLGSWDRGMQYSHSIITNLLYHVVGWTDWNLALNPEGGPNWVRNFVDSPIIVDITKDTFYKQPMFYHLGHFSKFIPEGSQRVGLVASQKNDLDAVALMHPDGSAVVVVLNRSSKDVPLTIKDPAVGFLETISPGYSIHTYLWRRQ
Method: A 484 μL aliquot of a 1.0 mg/mL solution of phosphatidylserine (PS) (Sigma P7769) in chloroform was evaporated under a stream of nitrogen for 1 hour. The lipid film was dissolved over 4 minutes of vigorous vortexing in 40 mL of 176 mM K2HPO4/50 mM citric acid (pH 4.7) containing 7.5 μL of triton X-100, resulting in a mixed micellar preparation with a composition of 0.32 mM triton and 0.37 mol % PS. 4-Methylumbelliferyl-beta-D-glucopyranoside (ACROS-337025000) was dissolved in the micellar solution to a final concentration of 2 mM for use as the reaction substrate.
Test compounds were diluted to the desired concentrations with dimethylsulfoxide (DMSO) from 10 mM stocks, and 0.41 μL of the DMSO compound mixture was added to 100 μL of micellar solution containing 10 nM GCase and 100 nM saposin C (Enzo ALX-201-262-C050). Pre-incubation was allowed to occur for 30 minutes at room temperature, after which the reaction was initiated by combining 25 μL of substrate solution with 25 μL of compound/GCase/saposin mixture. The reaction proceeded for 15 minutes at room temperature and was stopped by adding 150 μL of 1M glycine, pH 12.5. The endpoint of the reaction was monitored by measuring fluorescence intensity (excitation: 365 nm; emission: 440 nm) on a SpectraMax i3 instrument (Molecular Devices). Test compounds were screened at 1.0 and 0.1 μM final concentration, and subsequent 8-point dose response curves were obtained using 3-fold dilutions from a maximum final concentration of 5 μM.

[2] = Compound solubility in water

activation at 0.1 µM ([1]; 0.1 μM test compound) [%]	activation at 1 µM ([1]; 1 μM test compound) [%]	solubility [2] [µg/mL]	Percent Gcase Activation, 0.1 μM Test Compound ([1]; 0.1 μM test compound)	Percent Gcase Activation, 1 μM Test Compound ([1]; 1 μM test compound)	Compound
< 5	5 to 10	–	–	–	CCc1ccc(NC(=O)c2cnc3occn3c2=O)cc1
< 5	> 10	0.3 (≈ 0.964 µM)	–	–	CCC(C)c1ccc(NC(=O)c2cnc3occn3c2=O)cc1 (stereo not shown)
< 5	> 10	0.5 (≈ 1.54 µM)	–	–	CCC(C)c1ccc(NC(=O)c2cnc3n(C)ccn3c2=O)cc1 (stereo not shown)
< 5	5 to 10	1.4 (≈ 4.51 µM)	–	–	CCC(C)c1ccc(NC(=O)c2cnc3[nH]ccn3c2=O)cc1 (stereo not shown)
< 5	5 to 10	25.1 (≈ 85 µM)	–	–	O=C(NC1CCc2ccccc21)c1cnc2occn2c1=O (stereo not shown)
< 5	< 5	5.5 (≈ 17.6 µM)	–	–	O=C(Nc1ccc2c(c1)OCCO2)c1cnc2occn2c1=O
< 5	< 5	40.2 (≈ 109 µM)	–	–	CCN1CCN(c2ccc(NC(=O)c3cnc4occn4c3=O)cc2)CC1
< 5	< 5	2.2 (≈ 6.5 µM)	–	–	O=C(Nc1ccc(N2CCCCC2)cc1)c1cnc2occn2c1=O
< 5	< 5	25.6 (≈ 90.4 µM)	–	–	C[C@@H](NC(=O)c1cnc2occn2c1=O)c1ccccc1
< 5	> 10	58 (≈ 172 µM)	–	–	O=C(NC1CCC(c2ccccc2)CC1)c1cnc2occn2c1=O (stereo not shown)
< 5	5 to 10	16.6 (≈ 53.5 µM)	–	–	CN1Cc2ccc(NC(=O)c3cnc4occn4c3=O)cc2C1
5 to 10	< 5	22.6 (≈ 73.1 µM)	–	–	O=C(NC1CCc2ccccc2C1)c1cnc2occn2c1=O (stereo not shown)
5 to 10	5 to 10	5.5 (≈ 19.7 µM)	–	–	C#Cc1ccc(NC(=O)c2cnc3occn3c2=O)cc1
< 5	> 10	30.2 (≈ 97.6 µM)	–	–	O=C(NC1CCCc2ccccc21)c1cnc2occn2c1=O (stereo not shown)
–	–	–	+ (less than 5% Gcase activation)	+++ (Gcase activation greater than 10%)	N-(4-butylcyclohexyl)-6-oxo-3,4-dihydro-2H,6H-pyrimido[2,1-b][1,3]thiazine-7-carboxamide
